# What was measured:
# Streptococcus pyogenes [1] = assay: Antibacterial activity against inducible macrolide-lincosamide-streptogramin B-resistant Streptococcus pyogenes B0543 by agar microdilution method; format: functional
# Streptococcus pyogenes [2] = assay: Antibacterial activity against erythromycin A-susceptible Streptococcus pyogenes B0542 by agar microdilution method
# Moraxella catarrhalis = assay: Antibacterial activity against Moraxella catarrhalis B0324 by agar microdilution method; format: functional
# Staphylococcus aureus [3] = assay: Antibacterial activity against efflux-resistant Staphylococcus aureus B0331 by agar microdilution method; format: functional
# Staphylococcus aureus [4] = assay: Antibacterial activity against erythromycin A-susceptible Staphylococcus aureus B0329 by agar microdilution method
# Staphylococcus aureus [5] = assay: Antibacterial activity against inducible macrolide-lincosamide-streptogramin B-resistant Staphylococcus aureus B0538 by agar microdilution method; format: functional
# Staphylococcus aureus [6] = assay: Antibacterial activity against constitutive macrolide-lincosamide-streptogramin B-resistant Staphylococcus aureus B0330 by agar microdilution method; format: functional
# Streptococcus pneumoniae [7] = assay: Antibacterial activity against efflux-resistant Streptococcus pneumoniae B0326 by agar microdilution method; format: functional
# Streptococcus pneumoniae [8] = assay: Antibacterial activity against erythromycin-susceptible Streptococcus pneumoniae B0541 by agar microdilution method
# Streptococcus pyogenes [9] = assay: Antibacterial activity against constitutive macrolide-lincosamide-streptogramin B-resistant Streptococcus pyogenes B0544 by agar microdilution method; format: functional
# Streptococcus pneumoniae [10] = assay: Antibacterial activity against constitutive macrolide-lincosamide-streptogramin B-resistant Streptococcus pneumoniae B0627 by agar microdilution method; format: functional
# Streptococcus pyogenes [11] = assay: Antibacterial activity against efflux-resistant Streptococcus pyogenes B0545 by agar microdilution method; format: functional
# Haemophilus influenzae = assay: Antibacterial activity against Haemophilus influenzae B0529 by agar microdilution method; format: functional
Compound,MIC (Streptococcus pyogenes [1]),MIC (Streptococcus pyogenes [2]),MIC (Moraxella catarrhalis),MIC (Staphylococcus aureus [3]),MIC (Staphylococcus aureus [4]),MIC (Staphylococcus aureus [5]),MIC (Staphylococcus aureus [6]),MIC (Streptococcus pneumoniae [7]),MIC (Streptococcus pneumoniae [8]),MIC (Streptococcus pyogenes [9]),MIC (Streptococcus pneumoniae [10]),MIC (Streptococcus pyogenes [11]),MIC (Haemophilus influenzae)
CC[C@H]1OC(=O)[C@H](C)C(=O)[C@H](C)[C@@H](O[C@@H]2O[C@H](C)C[C@H](N(C)C)[C@H]2O)[C@](C)(OCC(O)CN2CCN(c3ccc(C(C)=O)cc3)CC2)C[C@@H](C)NC(=O)[C@H](C)[C@@H](O)[C@]1(C)O (mixture of isomers),8 µg/mL,0.5 µg/mL,4 µg/mL,2 µg/mL,2 µg/mL,4 µg/mL,> 64 µg/mL,2 µg/mL,1 µg/mL,32 µg/mL,32 µg/mL,4 µg/mL,16 µg/mL
CCOc1ccccc1N1CCN(CC(O)CO[C@]2(C)C[C@@H](C)NC(=O)[C@H](C)[C@@H](O)[C@](C)(O)[C@@H](CC)OC(=O)[C@H](C)C(=O)[C@H](C)[C@H]2O[C@@H]2O[C@H](C)C[C@H](N(C)C)[C@H]2O)CC1 (mixture of isomers),8 µg/mL,≤ 0.125 µg/mL,2 µg/mL,4 µg/mL,2 µg/mL,2 µg/mL,> 64 µg/mL,8 µg/mL,0.5 µg/mL,16 µg/mL,16 µg/mL,4 µg/mL,32 µg/mL
CC[C@H]1OC(=O)[C@H](C)C(=O)[C@H](C)[C@@H](O[C@@H]2O[C@H](C)C[C@H](N(C)C)[C@H]2O)[C@](C)(OCC(O)CNCc2cnc3ccccc3c2)C[C@@H](C)NC(=O)[C@H](C)[C@@H](O)[C@]1(C)O (mixture of isomers),4 µg/mL,≤ 0.125 µg/mL,2 µg/mL,0.5 µg/mL,1 µg/mL,2 µg/mL,> 64 µg/mL,4 µg/mL,≤ 0.125 µg/mL,8 µg/mL,8 µg/mL,8 µg/mL,4 µg/mL
CC[C@H]1OC(=O)[C@H](C)C(=O)[C@H](C)[C@@H](O[C@@H]2O[C@H](C)C[C@H](N(C)C)[C@H]2O)[C@](C)(OCC(O)CNCCNc2cnc3ccccc3c2)C[C@@H](C)NC(=O)[C@H](C)[C@@H](O)[C@]1(C)O (mixture of isomers),1 µg/mL,≤ 0.125 µg/mL,≤ 0.125 µg/mL,0.25 µg/mL,1 µg/mL,1 µg/mL,> 64 µg/mL,0.25 µg/mL,≤ 0.125 µg/mL,4 µg/mL,1 µg/mL,0.5 µg/mL,1 µg/mL
CC[C@H]1OC(=O)[C@H](C)[C@@H](O[C@H]2C[C@@](C)(OC)[C@@H](O)[C@H](C)O2)[C@H](C)[C@@H](O[C@@H]2O[C@H](C)C[C@H](N(C)C)[C@H]2O)[C@](C)(O)C[C@@H](C)CN(C)[C@H](C)[C@@H](O)[C@]1(C)O [AZITHROMYCIN],8 µg/mL,≤ 0.125 µg/mL,0.25 µg/mL,> 64 µg/mL,1 µg/mL,> 64 µg/mL,> 64 µg/mL,4 µg/mL,≤ 0.125 µg/mL,> 64 µg/mL,> 64 µg/mL,1 µg/mL,1 µg/mL
CC[C@H]1OC(=O)[C@H](C)C(=O)[C@H](C)[C@@H](O[C@@H]2O[C@H](C)C[C@H](N(C)C)[C@H]2O)[C@](C)(OCC=Cc2cnc3ccccc3c2)C[C@@H](C)C(=O)[C@H](C)[C@H]2NC(=O)O[C@@]21C [CETHROMYCIN],≤ 0.06 µg/mL,≤ 0.06 µg/mL,≤ 0.125 µg/mL,0.25 µg/mL,≤ 0.06 µg/mL,0.25 µg/mL,> 64 µg/mL,≤ 0.06 µg/mL,≤ 0.06 µg/mL,1 µg/mL,≤ 0.125 µg/mL,≤ 0.125 µg/mL,1 µg/mL
CC[C@H]1OC(=O)[C@H](C)C(=O)[C@H](C)[C@@H](O[C@@H]2O[C@H](C)C[C@H](N(C)C)[C@H]2O)[C@](C)(OC)C[C@@H](C)C(=O)[C@H](C)[C@H]2N(CCCCn3cnc(-c4cccnc4)c3)C(=O)O[C@]12C [TELITHROMYCIN],≤ 0.06 µg/mL,≤ 0.06 µg/mL,≤ 0.125 µg/mL,0.25 µg/mL,≤ 0.125 µg/mL,0.5 µg/mL,> 64 µg/mL,0.5 µg/mL,≤ 0.06 µg/mL,4 µg/mL,≤ 0.125 µg/mL,0.25 µg/mL,1 µg/mL

# Source: ChEMBL document CHEMBL1212927, “Synthesis and structure-activity relationships of novel 8a-aza-8a-homoerythromycin A ketolides” (2010)
